Results reported in US9540356B2 (priority 2012, dated 2017).

Columns and labels:
HeLa cells [1] = assay: cells; format: cell-based; conditions: Homo sapiens
[2] = test system: retrograde transport of Shiga toxin subunit B (StxB); format: cell-based
HeLa cells [3] = format: cell-based, human

For `CN1c2ccccc2C(=O)N(c2ccccc2)C1c1ccc(-c2ccco2)s1` (stereo not drawn) [Compound 40, 2-(5-(Furan-2-yl)thiophen-2-yl)-1-methyl-3-phenyl-2,3-dihydroquinazolin-4(1H)-one], the IC50 (HeLa cells [1]) was 1500 nM, the “retrograde transport, % control” value [2] was 5.3% and the “R (Stx), protective index” value (HeLa cells [3]) was 27.
